Columns and labels:
P2Y purinoceptor 2 [1] = target: T1, P2Y purinoceptor 2 (Homo sapiens, UniProt P41231); assay: Displacement of 2-((5-(7-chloro-2-((3-((2-(5-(3-(5,5-difluoro-7,9-dimethyl-5H-4lambda4,5lambda4-dipyrrolo[1,2-c:2',1'-f][1,3,2]diazaborinin-3-yl)propanamido)pentanamido)ethyl)amino)-3-oxopropyl)amino)-4H-benzo[5,6]cyclohepta[1,2-d]thiazol-4-yl)-2-oxo-4-thioxo-3,4-dihydropyrimidin-1(2H)-yl)methyl)-N-(1H-tetrazol-5-yl)thiazole-4-carboxamide from NLuc fused P2Y2R (unknown origin) extracted from 1321N1 cell membrane incubated for 1 hr by NanoBRET assay
T1 sequence (P41231 whole entry, the tested form may be a part): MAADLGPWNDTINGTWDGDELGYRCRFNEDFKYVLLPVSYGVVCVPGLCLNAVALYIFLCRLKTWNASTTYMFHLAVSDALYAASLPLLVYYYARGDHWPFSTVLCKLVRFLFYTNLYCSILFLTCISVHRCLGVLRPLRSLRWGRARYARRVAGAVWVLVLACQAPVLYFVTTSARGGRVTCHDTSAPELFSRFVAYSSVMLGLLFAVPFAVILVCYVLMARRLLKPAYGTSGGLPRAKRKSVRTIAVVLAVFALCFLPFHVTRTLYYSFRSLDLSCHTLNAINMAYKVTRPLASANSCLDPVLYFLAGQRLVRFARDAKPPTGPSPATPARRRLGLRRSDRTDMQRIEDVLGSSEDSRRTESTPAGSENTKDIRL

P2Y purinoceptor 2 [2] = target: T1, P2Y purinoceptor 2
Description: Binding affinity to NanoLuc-fused P2Y2R (unknown origin) extracted from 1321N1 cell membrane incubated for 1 hr by NanoBRET assay

P2Y purinoceptor 2 [3] = target: T1, P2Y purinoceptor 2; remark: listed apart in the source
Description: Displacement of (E)-N6-(5-(bis(4-chlorophenyl)methyl)thiazol-2-yl)-N2-(6-(2-(4-(2-(5,5-difluoro-7-(thiophen-2-yl)-5H-4lambda4,5lambda4-dipyrrolo[1,2-c:2',1'-f][1,3,2]diazaborinin-3-yl)vinyl)phenoxy)acetamido)hexanoyl)-L-lysine from NLuc fused P2Y2R (unknown origin) extracted from 1321N1 cell membrane incubated for 1 hr by NanoBRET assay

O=C(COc1ccc(/C=C/C2=[N+]3C(=Cc4ccc(-c5cccs5)n4[B-]3(F)F)C=C2)cc1)NCCCCCC(=O)N[C@@H](CCCNc1ncc(C(c2ccc(Cl)cc2)c2ccc(Cl)cc2)s1)C(=O)O
Ki (P2Y purinoceptor 2 [1]): 3.31 µM | Kd (P2Y purinoceptor 2 [2]): 0.955 µM

CN(C)c1ccc2c(-c3ccc(C(=O)N[C@@H](CCCNc4ncc(C(c5ccc(Cl)cc5)c5ccc(Cl)cc5)s4)C(=O)O)cc3C(=O)[O-])c3ccc(=[N+](C)C)cc-3oc2c1
Kd (P2Y purinoceptor 2 [2]): 4.17 µM

O=C(COc1ccc(/C=C/C2=[N+]3C(=Cc4ccc(-c5cccs5)n4[B-]3(F)F)C=C2)cc1)NCCCCCC(=O)N[C@@H](CCNc1ncc(C(c2ccc(Cl)cc2)c2ccc(Cl)cc2)s1)C(=O)O
Kd (P2Y purinoceptor 2 [2]): 2.29 µM

CCOCCNc1ncc(C(c2ccc(Cl)cc2)c2ccc(Cl)cc2)s1
Ki (P2Y purinoceptor 2 [1]): ~1000 µM

CCOCCNc1nc2c(s1)C=Cc1cc(Cl)ccc1[C@@H]2c1cn(C)c(=O)[nH]c1=S (racemic)
Ki (P2Y purinoceptor 2 [3]): 9.12 µM
